“Also recorded” adds a separate entry of the source.
Legend:
[1] = system: A549 cells; test: Cytokine production by A549 cells stimulated with whole P. aeruginosa PAO1; assay type: cell-based, Human; details: 4 h, 37 °C, 5% CO2
Procedure: The reference strain P. aeruginosa PAO1 (ATCC 15692) was used in this study. For the preparation of stock cultures, bacteria were grown in Tryptone Soy Broth (TSB; Thermo Fisher Scientific, Waltham, MA, USA) until mid-exponential phase, then aliquoted and stored at −80 °C. For the preparation of the inoculum, a volume of 50 μL of the frozen culture was inoculated in 5 mL of TSB, and subsequently incubated for 18 h at 37 °C. […]
In some experiments, the ability of (lin-SB056-1)2-K to inhibit cytokine production by A549 cells stimulated with whole P. aeruginosa (PAO1 strain) was assessed. […]
Different pro-inflammatory cytokines (i.e., IL-1β, IL-6, IL-8 and TNF-α) were quantified in cell culture supernatants through a bead-based multiplex immunoassay (LEGENDplex multi-analyte flow assay kit; BioLegend, San Diego, CA, USA) following manufacturer’s instructions. […] Following consecutive washing steps, the beads were resuspended in the LEGENDplex wash buffer and the samples were analyzed by flow cytometry (BD Accuri C6 flow cytometer; BD Biosciences, Mountain View, CA, United States). Data were acquired with the BD Accuri C6 software (BD Biosciences) (300 events per analyte) and analyzed with the LEGENDplex software (BioLegend). […]

[2] = system: A549 cells; test: Cytotoxicity (LDH release) towards A549 cells; assay type: cell-based, Human; details: LPS-stimulated A549, 4 h
Procedure: Human non-small-cell lung adenocarcinoma A549 cells (ATCC CCL-185; LGC Standards, Milan, Italy) and human monocytic THP-1 cells (ATCC TIB-202; LGC Standards) were cultured in tissue culture flasks in Dulbecco’s modified essential medium (DMEM) (Euroclone, Milan, Italy) and RPMI 1640 medium (Euroclone), respectively. Both media were supplemented with 2 mM L-glutamine (Euroclone) and 10% heat-inactivated fetal bovine serum (FBS; Euroclone). Confluent monolayers were detached from the culture flask with 0.25% trypsin/1 mM EDTA solution (Euroclone), suspended in complete culture medium and seeded into flat-bottom 96-well plates at a final density of 1 × 10^4 cells/well (A549) and 2 × 10^4 cells/well (THP-1). A549 cells were cultured for 24 h at 37 °C, 5% CO2 in order to allow adhesion and formation of semi-confluent monolayers. THP-1 cells were cultured for 3 days (37 °C, 5% CO2) in the presence of 100 nM TPA (Sigma-Aldrich, St. Louis, MO, USA) to induce their differentiation into macrophage-like cells.
The cytotoxicity of lin-SB056-1 and (lin-SB056-1)2-K towards A549 and THP-1 cells was evaluated to exclude a possible correlation between reduction in cytokine levels and decrease in cell numbers. To this end, culture supernatants of cells stimulated with LPS in the presence of the peptides were employed to quantify the amount of cytoplasmic LDH released by dead cells. Cells incubated in culture medium alone or in the presence of LPS served as an indication of spontaneous cell death (cell viability controls), while cells treated with a commercial lysis buffer (Pierce LDH cytotoxicity assay kit, Thermo Fisher Scientific) were used as cell death control (100% cell lysis). The enzymatic activity of LDH in cell supernatants was measured using the Pierce LDH cytotoxicity assay kit (Thermo Fisher Scientific) following manufacturer’s instructions. The cytotoxic effect was determined as follows: cytotoxicity (%) = [(LDH activity of A/LDH activity of B) × 100], where A represents peptide-treated or untreated cells (both in the presence and absence of LPS), and B corresponds to the cell lysis control.

[3] = LAL assay, LPS neutralization; assay type: biochemical, Escherichia coli; details: E. coli 011:B4 LPS 2 EU/mL, 37 °C
Procedure: The ability of lin-SB056-1 and (lin-SB056-1)2-K to neutralize the activity of LPS was analyzed using a standardized LAL assay (Pierce LAL chromogenic endotoxin quantitation kit; Thermo Fisher Scientific). Peptides at different concentrations (2.4 to 19.25 μM) were pre-incubated with E. coli 011:B4 LPS (2 Endotoxin Units (EU)/mL; EU = unit of measurement for endotoxin activity) for 30 min (37 °C, shaking) in order to promote the interaction between the two molecules. LPS alone was used as positive control. Following incubation, peptide-treated and untreated samples were mixed with the LAL reagent (1:1 ratio) and incubated for 10 min at 37 °C. Subsequently, 100 μL of the chromogenic substrate were added and incubated with the samples for 6 min. The reaction was terminated by adding 100 μL of acetic acid (25% v/v), and absorbance was measured at 405 nm ([…]) using a microplate reader (Multiscan FC, Life Technologies Italia, Monza, Italy). The amount of peptide-sequestered LPS was determined as follows: LPS neutralization (%) = [100 − (ODpeptide/ODpositive control × 100)].

[4] = system: P. aeruginosa; details: in vivo-like models of lung infection; cited from earlier work
Source text: The global issue of anti-microbial resistance coupled with the lack of new treatments for bacterial infections has stimulated interest in the use of AMPs for therapeutic purposes. Due to their unique mechanism(s) of action and wide spectrum of biological activities, AMPs are emerging as a promising alternative to conventional anti-microbial agents for the management of antibiotic-resistant and biofilm-associated infections. Although mainly intended for topical use due to potential toxicity and reduced stability under physiological conditions, many different peptides with anti-micro ...

Substance: [KWKIRVRLSA]2-K [(lin-SB056-1)2-K, dendrimeric derivative of lin-SB056-1]
- reduction in IL-6 levels ([1]; 9.6 μM peptide, PAO1 fixed with 4% paraformaldehyde, 5 × 10^6 CFU/well, statistically significant, mean of at least three independent experiments): up to 70%
- effect on IL-8 release ([1]; 9.6 and 19.25 μM peptide, fixed PAO1 5 × 10^6 CFU/well): no evident effect
- cell death (LDH release), with LPS ([2]; up to 19.25 μM (highest tested), 37 °C, 5% CO2, relative to cell lysis control, at least three independent experiments): less than 5%
- toxicity ([2]; up to 19.25 μM, LDH release): no detectable toxicity
- LPS neutralization ([3]; 19.25 μM peptide, pre-incubation 30 min, shaking, LAL reagent 10 min, chromogenic substrate 6 min, absorbance 405 nm (OD450), vs peptide-untreated control, mean of three independent experiments): ~100%
- LPS neutralization / LAL activity ([3]; 2.4 to 19.25 μM peptide, 30 min): higher LPS-binding ability than lin-SB056-1; also recorded: reduction of LAL activity
- anti-bacterial and anti-biofilm activity in in vivo-like models [4]: remarkable anti-bacterial and anti-biofilm activity

From publication PMC7557804, “The Anti-Microbial Peptide (Lin-SB056-1)2-K Reduces Pro-Inflammatory Cytokine Release through Interaction with Pseudomonas aeruginosa Lipopolysaccharide” (Antibiotics, 2020)
